Results from patent US10980769B2, “Tiglien-3-one derivatives” (QBIOTICS PTY LTD, priority 2005, dated 2021).

Tests used:
[1] = tested on: B16 mouse melanoma; assay: Topical treatment of B16 melanoma tumours in C57BL/6 mice; type: in vivo
Method: (§1) Tumour cells were injected subcutaneously (2 million cells/site in 50 μL culture medium for LK2 cells, 0.5 million for B16) into 4 sites each on the flanks of nude mice (for LK2 cells) or C57BL/6 mice (B16 mouse melanoma cells). When tumours became visible (2-4 mm diameter) five to 10 days after injection of cells, 37 μg of EBI-46 in 25 μL, of isopropanol gel was applied to each tumour site, each day for 3 days. Tumour size was measured with calipers at appropriate intervals.
(§2) Animal experiments were conducted under Queensland Institute of Medical Research (QIMR) Animal Ethics Committee approvals. The B16 mouse melanoma model was obtained by injecting 0.5 million B16 mouse melanoma cells subcutaneously into each of the 2 flanks of a male C57BL/6 mouse. The human tumour xenografts were obtained by injecting 2 million of the respective tumour cell line into each of 4 sites on the flanks of male nude mice (BALB/c background). EBI-46 was applied: (a) topically by dilution of a concentrated solution in acetone into an isopropanol gel, once a day for 3 days; (b) intralesionally by injection into the tumour of drug dissolved in 25% propylene glycol-0.1 M saline, (c) systemically by injection intraperitoneally in 25% propylene glycol in 0.1 M saline. Tumour size was measured with electronic callipers in mm and converted to volume (cubic mm) using the formula: Tumour volume=length×breadth×breadth/2. Results
Topical application of EBI-46 in an isopropanol gel was carried out on the aggressive B16 mouse melanoma in its natural (syngeneic) host, C57BL/6 mice (0.5 million tumour cells injected per site).
The frequency (1 daily dose for 3 days only) and dose level for topical application of PKC activators was selected on the basis of in vitro activity on cell lines. The materials were dissolved in acetone and diluted into an isopropanol gel for topical application.
The aggressive and rapidly growing B16 mouse melanoma is recognised as a very stringent tumour model in which to test anticancer agents. Stringency was further increased by injecting at least 10× more tumour cells than the minimum required to form a tumour in the animal. […] Such tumours could be distinguished from subcutaneous tumours by their immobility when the skin was pulled around the body of the animal.

[2] = tested on: Bacillus subtilis; assay: ProTOX (Bs) antibacterial bioassay; type: cell-based
Excerpt: ProTOX, (alternatively referred to herein as Bs) is an antibacterial bioassay, broadly applicable to most aerobic and anaerobic bacteria. The bioassay features a solid phase agar base into which the test compound has been incorporated together with a chromogen. As the bacteria multiply in the well, the chromogen is metabolised from blue in a two-step process to a colourless compound. Compounds with potent bactericidal activity inhibit bacterial metabolism of the chromogen while bacteriostatic compounds induce limited metabolism as indicated by an intermediate pink colour. ProTOX is broadly applicable to a range of gram-positive and gram-negative bacteria under aerobic and microaerophilic conditions. ProTOX assays were carried out using Bacillus subtilis.
Briefly, in ProTOX, the bacteria (24 hour broth) were applied to the surface of an agar matrix containing the test sample and allowed to grow for 48 hours. The assay was monitored at 24 and 48 hours and the active wells noted. Known antibiotics yield consistent colour transitions which are concentration and time dependent. These patterns provide an important guide to the early recognition of interesting characteristics.

[3] = tested on: LK2 mouse SCC; assay: Topical treatment of LK2 mouse SCC tumours in nude mice; type: in vivo
Method: as §1, §2
The above was repeated using the UVB-induced mouse squamous cell carcinoma (SCC) grown on nude mice (FIG. 6) and treated with partially-purified EBI-46.
The most recent experiment with topical application used 2 different doses of EBI-46 (FIG. 7). The low dose was 100 μg/site and the high dose was 350 μg/site/treatment.

[4] = Stability; type: physicochemical
Excerpt: This instability was observed upon nitrogen evaporation but not while in acetonitrile/water solution at room temperature or on vacuum evaporation. To avoid decomposition the equivalent four bands of active metabolites from the second preparative HPLC were individually back extracted in the ethyl acetate and evaporated under vacuum. Analytical HPLC of these samples confirmed minimal decomposition.
[…] The structure has no readily reactive groups which might otherwise confer instability.

[5] = tested on: MCF-7; assay: Cell scattering of cultured cells; type: cell-based, human
[6] = tested on: HT-29 colon tumour cells; assay: Cell scattering of cultured cells; type: cell-based, human
Excerpt: In addition, scattering of MCF-7 and HT-29 colon tumour cells was observed, typical of PKC activators. […] Additionally, given their similarity in structure, EBI-47, EBI-59 and EBI-61 are also considered to be protein kinase C activators.

[7] = topical, approximately 150 μg/site

## C/C=C(\C)C(=O)OC1C(C)C2(O)C(C3OC3(CO)C(O)C3(O)C(=O)C(C)=CC32)C2C(C)(C)C12OC(=O)C(C)CC (stereo not shown) [EBI-46, 12-tigloyl-13-(2-methylbutanoyl)-6,7-epoxy-4,5,9,12,13,20-hexahydroxy-1-tiglian-3-one]
[1]; topical 37 μg per site once a day for 3 days
  systemic toxicity or lung metastases on post mortem: There were no signs of
[1]; topical 37 μg per site once a day for 3 days starting at day 5
  tumour growth: inhibition of tumour growth.
[1]; [7]
  inflammatory response: mild
  systemic toxicity or lung metastases: no sign of systemic toxicity or lung metastases
  tumour sites cured: one site apparently cured
[1]; topical, approximately 150 μg/site, 1 daily dose for 3 days
  tumour response: good response
[2]
  Bs Titre: 1
[2]; Table 6a, last well with activity, real value may be lower
  Bs LD99: 50 pg/mL
[3]; 37 ug/site in isopropanol gel once a day for 3 days, nude mice
  tumours cured and healed without scarring: without scarring of 3 out of 4
[3]; 37 ug/site once a day for 3 days
  systemic toxicity or lung metastases on post mortem: no signs of systemic toxicity
[3]; high dose 350 μg/site/treatment
  tumour growth inhibition result: excellent result
[4]; 25% propylene glycol-saline at 4° C.
  stability of solution: stable for weeks
[4]; PEG 400 containing 10% ethanol held at 37° C.
  stability by HPLC: confirmed
[4]; in ethanol, 4° C. for 4 weeks
  stability of solutions: retain bioactivity
[5]
  scattering of MCF-7 cells: cell scattering
[6]
  scattering of HT-29 colon tumour cells: scattering
